Measurements: US7919475B2, “Compositions and methods for improving heart function” (The Regents of The University of California, priority 2004, dated 2011)

Experiments:
[1] = tested on: neonatal rat cardiomyocytes; test: Indo-1 [Ca2+]i transients in cultured neonatal cardiomyocytes; assay type: cell-based; conditions: for time to achieve a 50% decrease in the calcium transient (T1/2): 5.5 mM glucose supplemented with 8 mM glucosamine or 50 μM PUGNAc, 72 hours; for increase in diastolic calcium decay relative to controls: 5.5 mM glucose with 8 mM glucosamine or 50 μM PUGNAc
Description: (§1) Cardiomyocyte Isolation and Culture. Primary cultures of neonatal rat cardiomyocytes were prepared as described previously, see, e.g., Hartong (1996) J. Mol. Cell. Cardiol. 28:2467-2477. Cells were plated onto gelatin-coated culture dishes or laminin-coated glass chamber slides. Plating medium consisted of 4.25:1 DMEM:M199, 10% horse serum, 5% fetal bovine serum, 1% penicillin/streptomycin/fungizone (PSF), and 5.5 mM D-glucose. Cells were allowed to adhere to the plates for 24 hours before changing to basic experimental culture medium (4.5:1 DMEM:M199, 2% fetal bovine serum, 1% PSF, and 100 μM insulin) and supplemented with glucose at either physiological (5.5 mM; normal glucose) or elevated (25 mM; high glucose) concentrations. For some experiments, media was supplemented with 8 mM glucosamine, 40 μM aminoguanidine, 0.5 μg/ml tunicamycin, 50 μM PUGNAc or an osmotic control (20 mM mannitol). In cases where cells were plated at exceptionally high density (5×10^6 per 100 mm plate), the culture medium was changed daily until the cells were harvested.
Construction of adenoviral vectors. The rat cDNA corresponding to the UDP-N-acetylglucosamine:peptide N-acetylglucosaminyl transferase gene (O-GlcNAc transferase; OGT), which encodes the enzyme responsible for the O-linkage of single N-acetylglucosamine molecules to serine/threonine residues (19), and the human cDNA encoding the O-GlcNAcase gene (GCA), the enzyme responsible for removing O-linked N-acetylglucosamine residues (see, e.g., Haltiwanger (1992) J. Biol. Chem. 267:9005-9013). Each cDNA was inserted into the E1 region of an adenoviral vector construct using previously described methods (see, e.g., Gao (2001) J. Biol. Chem. 276:9838-9845). Replication-deficient adenovirus particles containing the target gene or empty vector (SR−) were generated by in vivo recombination in 293 cells and single plaques were isolated and propagated to achieve high titer. Adenoviral particles were CsCl-purified and quantified by plaque titer assay. Myocytes were infected with a multiplicity of infection (MOI) of 25 for all viruses.
Measurement of [Ca^2+]I transients. Indo-1 facilitated measurement of Ca^2+ transients has been described previously, see, e.g., He (1997) J. Clin. Invest 100:380-389). […] Cells were rinsed and incubated for 20 min at RT in appropriate serum-free culture medium containing 1.8 mM CaCl2 prior to making fluorescence measurements to allow for deesterification of the Indo-1/AM. […] Transients were measured from at least 18 cells per slide per treatment. […]
Calcium transients. To determine whether elevated extracellular glucose and increased O-GlcNAcylation would exert an effect on intracellular calcium flux, Indo-1 calcium transients were determined in neonatal rat cardiomyocytes. […]

nuclear O-GlcNAcylation = test: Nuclear O-GlcNAcylation by Western immunoblot (antibody 110.6) in neonatal cardiomyocytes; assay type: cell-based, rat; conditions: 72 hours; 25 mM glucose; 5.5 mM glucose with 8 mM glucosamine or 50 μM PUGNAc; 25 mM glucose with adenovirus MOI 25
Description: Samples of each extract (25-50 μg) were fractionated by SDS-PAGE on precast 4-20% Tris-glycine gels (BioRad) and transferred to nylon membranes. Membranes were blocked overnight, exposed to the O-GlcNAc-specific antibody 110.6 (17) (1:10,000) overnight at 4° C., then exposed for 1 hour to 1:5,000 goat anti-mouse IgM-HRP. Alternatively, membranes were exposed to anti-MEF-2 (1:200) for one hour at RT followed by a one hour exposure to 1:10,000 goat anti-rabbit IgG-HRP. Visualization and quantification was as described above.
Cells were cultured for 72 hours in 5.5 mM glucose (NG) or 25 mM glucose (HG) and supplemented with one of the following: 8 mM glucosamine (NG/GlcN), 50 μM PUGNAc, or adenovirus encoding either OGT or GCA. Adenoviruses were applied at an MOI=25. Nuclear extracts (50 μg) were prepared according to the methods outlines in “Experimental Procedures”, resolved on 4-20% gradient SDS-tricine gels, transferred to nylon membranes and immunoblotted with a monoclonal anti-O-GlcNAc antibody 110.6.

CB6F1 mice = test: Blood glucose and cardiac UDP-sugar nucleotides in streptozocin-injected mice; assay type: in vivo, mouse; conditions: streptozocin 150 mg/kg intraperitoneal, three weeks
Description: Animals and Determination of Cardiac Sugar Nucleotides. Male CB6F1 mice weighing 20-25 g (Charles River, Wilmington, Mass.) were made diabetic using methods described previously, see, e.g., Trost (2002) supra. Briefly, diabetes was induced with a single intraperitoneal injection of streptozocin (150 mg/kg in citrate saline, pH 4.5) to animals fasted overnight (16 hrs). Diabetic animals were sacrificed three weeks following injection. To determine the degree of diabetes, blood was drawn via direct cardiac puncture in CO2-euthanized animals and plasma glucose concentration was determined using the Sigma Glucose Kit (510-A).
Sugar nucleotides were extracted from fresh ventricles and quantified by HPLC as described by Weckbecker (1983) Anal. Biochem. 132:405-412. Hearts were homogenized in 3 vols of ice-cold 0.3 M HClO4 and debris pelleted at 10,000×g for 15 min at 4° C. Two vols of 1:4 trioctylamine: 1,1,2-trichlorotrifluoroethane (Freon) were added to the supernatant, followed by vortexing for 30 sec and centrifuging at 1000×g for 5 min at 4° C. The aqueous phase was carefully transferred to a fresh tube and frozen at −80° C. until assayed. Samples were diluted in 0.5 ml H2O and desalted on a Mono-Q column (flow rate 1 ml/min). The combined UDP-GlcNAc/GalNAc fraction was collected as a peak at 23 minutes and the sample was lyophilized overnight. Dried samples were subsequently dissolved in borate solution (0.22 M boric acid, 0.09 M disodium tetraborate, and 1.2 M glycerol, pH 6.85), and separated into distinct UDP-GlcNAc and UDP-GalNAc peaks on a Partisil SAX-10 column. […]
Effects of STZ-induced diabetes on UDP-nucleotide levels. […] Blood was drawn via direct cardiac puncture and plasma [glucose] was subsequently determined using a Sigma Glucose kit. Sugar nucleotides were extracted immediately from hearts and quantitated using HPLC as described in “Experimental Procedures” above. […] Fractions were quantified by comparing total peak area with results from known concentrations of each sugar nucleotide.

SERCA2a = SERCA2a protein level by Western immunoblot in neonatal cardiomyocytes; assay type: cell-based, rat; conditions: for influence on SERCA2a protein levels: 40 μM aminoguanidine or 0.5 μg/ml tunicamycin, regardless of glucose concentration
Description: as §1
Western Immunoblotting. To determine SERCA2a protein levels, myocytes (1×10^6) were washed with phosphate buffered saline (PBS), then extracted with 0.2 ml lysis buffer (20 mM Tris, pH 7.4, 20 mM NaCl, 0.1 mM EDTA, 1% Triton X-100, 0.5% Na-deoxycholate, 1 mM dithiothreitol). Lysates were incubated on ice for 30 min, and cellular debris was pelleted at 10,000×g for 20 min at 4° C. Protein concentration in the supernatant was determined by BioRad protein reagent. 30 μg of protein diluted in extraction buffer and 4× Laemmli sample buffer were loaded without boiling onto pre-cast 4-20% Tris-glycine gels. Separated proteins were transferred to nylon membranes using a Bio-Rad Mini Trans-Blot apparatus and blocked overnight at 4° C. Blots were incubated with a rabbit polyclonal SERCA2a antibody (see, e.g., Hartong (1996) supra) (1:5000) for 1 hour at RT, followed by a 1 hour incubation with a 1:5000 dilution of goat anti-rabbit IgG-HRP conjugated secondary antibody (Amersham). Bands were visualized by reacting with chemiluminescent substrate (NEN) and exposed to film. Protein bands were quantified from scanned images using Scion imaging software (Scion, Frederick, Md.).
SERCA2a in RNA, protein expression and promoter activity. […] FIG. 2 illustrates Northern and western blots of neonatal cardiomyocytes. (FIG. 2A) Results of a northern blot for SERCA2a mRNA in neonatal cardiomyocytes cultured for 72 hours with 5.5 mM (NG) or 25 mM (HG) glucose. Total RNA (15 μg) isolated from cultured myocytes was resolved using a denaturing agarose gel, transferred to a nylon membrane and probed with a full length ^32P-labeled probe corresponding to rat SERCA2a as described in “Experimental Procedures”. (FIG. 2B) Western immunoblot analysis of SERCA2a protein levels from neonatal cardiomyocytes exposed to 5.5 mM or 25 mM glucose in the presence and absence of 40 μM aminoguanidine (AG), 0.5 μg/ml tunicamycin (Tun), or 8 mM glucosamine (GlcN, 5.5 mM glucose group only). Crude lysates (30 μg) were resolved using 4-20% gradient SDS-PAGE gels, transferred to nylon membranes, and immunoblotted with a SERCA2a polyclonal antibody as described in “Experimental Procedures”. […] (C) SERCA2a protein levels based on Western immunoblots from adenovirus-infected neonatal cardiomyocytes.

rat SERCA2a promoter = test: SERCA2a promoter luciferase assay in neonatal cardiomyocytes; assay type: cell-based; conditions: 5.5 mM glucose/8 mM glucosamine
Description: Transfections and SERCA2a Promoter Luciferase Assays. DNA transfection of neonatal cardiomyocytes was performed using the calcium phosphate-DNA co-precipitation method, see, e.g., Chen (1987) Mol. Cell. Biol 7:2745-2752. Cells (0.5×10^6) were transfected overnight in appropriate culture medium (either NG- or HG-containing medium) with 50 ng of either a 0.6 kb fragment of the rat SERCA2a promoter (corresponding to the 600 bases immediately upstream of the transcriptional start codon) (see, e.g., Rohrer (1991) J. Biol. Chem. 266:8638-8646) or a control plasmid (pGL3; Promega) and 3 μg of fill plasmid (pBS; Stratagene), then washed with PBS and changed into fresh culture medium. […] Transfected cells were incubated for 48 hours, then washed with PBS and incubated for 10 min with gentle agitation at RT in 200 μl of harvest buffer (50 mM MES/Tris pH 7.8, 0.1% Triton X-100, and 1.3 mM dithiothreitol). Luciferase activity was measured using 100 μl of extract in a luminometer.
The reduction in SERCA2a mRNA and protein expression observed following treatment of myocytes with high glucose prompted us to examine whether these effects were being exerted, at least in part, by interactions with the SERCA2a gene promoter. […] Crude cell lysates were incubated with luciferase substrate and relative light units were measured on a luminometer. […]

MEF-2a = MEF-2a protein level by immunoblot of nuclear extracts of neonatal cardiomyocytes; assay type: cell-based, rat; conditions: 25 mM glucose; 5.5 mM glucose with 8 mM glucosamine; 25 mM glucose with adeno-OGT MOI 25
Description: To examine cellular O-GlcNAcylation and MEF-2a levels, nuclear extracts were prepared from neonatal cardiomyocytes (2×10^6) using modifications of the procedures described by Dignam (1983) Nucleic Acids Res. 11:1475-1489. Samples of each extract (25-50 μg) were fractionated by SDS-PAGE on precast 4-20% Tris-glycine gels (BioRad) and transferred to nylon membranes. Membranes were blocked overnight, exposed to the O-GlcNAc-specific antibody 110.6 (17) (1:10,000) overnight at 4° C., then exposed for 1 hour to 1:5,000 goat anti-mouse IgM-HRP. Alternatively, membranes were exposed to anti-MEF-2 (1:200) for one hour at RT followed by a one hour exposure to 1:10,000 goat anti-rabbit IgG-HRP. Visualization and quantification was as described above.
Nuclear extracts (50 μg) were prepared as described in “Experimental Procedures” above, resolved on 10% SDS-PAGE gels, transferred to nylon membranes and immunoblotted with anti-MEF2 antibody (Santa Cruz Biotech).

Molecule: CC(=O)N[C@H]1/C(=N/OC(=O)Nc2ccccc2)O[C@H](CO)[C@@H](O)[C@@H]1O [PUGNAc, O-(2-acetamido-2-deoxy-D-glucopyranosylidene)amino-N-phenyl carbamate]
- time to achieve a 50% decrease in the calcium transient (T1/2) [1]: 1.31 ± 0.085 s
- increase in diastolic calcium decay relative to controls [1]: 43%
- overall levels of nuclear O-GlcNAcylation (nuclear O-GlcNAcylation): substantially increased

Molecule: CN(N=O)C(=O)N[C@@H](C=O)[C@@H](O)[C@H](O)[C@H](O)CO [STZ, streptozocin]
- UDP-GalNAc in heart (CB6F1 mice): 0.51 ± 0.01 nmol
- UDP-GlcNAc in heart (CB6F1 mice): 1.36 ± 0.03 nmol
- blood glucose (CB6F1 mice): 969 ± 40 mg/dL

Molecule: N=C(N)NN [aminoguanidine]
- influence on SERCA2a protein levels (SERCA2a): Neither aminoguanidine nor tunicamycin appeared to influence SERCA2a protein levels
- apparent increase in SERCA2a vs controls (SERCA2a; 25 mM glucose and 40 μM aminoguanidine, repeated trials): not statistically significant

Molecule: N[C@H]1C(O)O[C@H](CO)[C@@H](O)[C@@H]1O (some centres unmarked) [glucosamine]
- time to achieve a 50% decrease in the calcium transient (T1/2) [1]: 1.32 ± 0.061 s
- increase in diastolic calcium decay relative to controls [1]: 43%
- change in SERCA2a protein compared with controls (SERCA2a; 5.5 mM glucose and 8 mM glucosamine): −25±3%
- SERCA2a protein levels compared with myocytes exposed only to 5.5 mM glucose (SERCA2a; 25 mM glucose and glucosamine): unchanged
- reduction in SERCA2a promoter activity compared with normal glucose controls (rat SERCA2a promoter): 33%
- overall levels of nuclear O-GlcNAcylation (nuclear O-GlcNAcylation): substantially increased
- decrease in MEF-2a expression levels compared with normal glucose controls (MEF-2a): 52%

Molecule: OC[C@@H](O)[C@@H](O)[C@H](O)[C@H](O)CO [mannitol]
- osmotic effect on SERCA2a protein levels (SERCA2a; 5.5 mM glucose and 20 mM mannitol): nor did we observe any osmotic effect

Molecule: tunicamycin
- influence on SERCA2a protein levels (SERCA2a): Neither aminoguanidine nor tunicamycin appeared to influence SERCA2a protein levels
